Assay in all cases: relative viability (nuclei count vs DMSO), 5 days (fraction); higher = more cells survive
Compound in the experiment “AZD8055 + Lapatinib”: COc1ccc(-c2ccc3c(N4CCOC[C@@H]4C)nc(N4CCOC[C@@H]4C)nc3n2)cc1CO [AZD8055] + CS(=O)(=O)CCNCc1ccc(-c2ccc3ncnc(Nc4ccc(OCc5cccc(F)c5)c(Cl)c4)c3c2)o1 [Lapatinib] (partner 2 µM)
An outline of the steps:
(§1)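 Relative viability is defined as nuclei in treated wells over nuclei in vehicle wells. Duplicate plates were run and medians reported. Lung cancer cell lines in 1536-well plates were dosed by pin tool one day after seeding, with one drug or with a fixed anchor-drug dose plus five library-drug doses (not always all listed) in √10 steps, and nuclei were counted after 5 days.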

Compound in the experiment “AZD8055 + Linsitinib”: COc1ccc(-c2ccc3c(N4CCOC[C@@H]4C)nc(N4CCOC[C@@H]4C)nc3n2)cc1CO [AZD8055] + C[C@]1(O)C[C@@H](c2nc(-c3ccc4ccc(-c5ccccc5)nc4c3)c3c(N)nccn32)C1 [Linsitinib] (partner 1 µM)
In a few lines:
as §1

Compound in the experiment “AZD8055 + OSI-027”: COc1ccc(-c2ccc3c(N4CCOC[C@@H]4C)nc(N4CCOC[C@@H]4C)nc3n2)cc1CO [AZD8055] + COc1cccc2cc(-c3nc([C@H]4CC[C@H](C(=O)O)CC4)n4ncnc(N)c34)[nH]c12 [OSI-027] (partner 0.5 µM)
An outline of the steps: as §1

Compound in the experiment “AZD8055 + Trametinib”: COc1ccc(-c2ccc3c(N4CCOC[C@@H]4C)nc(N4CCOC[C@@H]4C)nc3n2)cc1CO [AZD8055] + CC(=O)Nc1cccc(-n2c(=O)n(C3CC3)c(=O)c3c(Nc4ccc(I)cc4F)n(C)c(=O)c(C)c32)c1 [Trametinib] (partner 0.02 µM)
In a few lines:
as §1

On to RERF-LC-KJ, for which the relative viability was determined as 0.895 with AZD8055 + Lapatinib (first compound 0.01 µM); 0.726 with AZD8055 + Lapatinib (first compound 0.03162 µM); 0.637 with AZD8055 + Lapatinib (first compound 0.1 µM); 0.437 with AZD8055 + Lapatinib (first compound 0.3162 µM); 0.345 with AZD8055 + Lapatinib (first compound 1 µM); 0.86 in the experiment with AZD8055 + Linsitinib (first compound 0.01 µM). Further, the relative viability with AZD8055 + Linsitinib (first compound 0.03162 µM) was 0.739; in the experiment with AZD8055 + Linsitinib (first compound 0.1 µM) it was 0.597; in the experiment with AZD8055 + Linsitinib (first compound 0.3162 µM), 0.44; with AZD8055 + Linsitinib (first compound 1 µM), 0.352; with AZD8055 + OSI-027 (first compound 0.01 µM) it was 0.587; with AZD8055 + OSI-027 (first compound 0.03162 µM), 0.671. Moreover, the relative viability with AZD8055 + OSI-027 (first compound 0.1 µM) came out at 0.522; with AZD8055 + OSI-027 (first compound 0.3162 µM) it was 0.387; in the experiment with AZD8055 + OSI-027 (first compound 1 µM), 0.362; with AZD8055 + Trametinib (first compound 0.01 µM), 0.871; with AZD8055 + Trametinib (first compound 0.03162 µM) it was 0.816; with AZD8055 + Trametinib (first compound 0.1 µM), 0.649. The relative viability with AZD8055 + Trametinib (first compound 0.3162 µM) stood at 0.378; with AZD8055 + Trametinib (first compound 1 µM) it was 0.38.

SK-LU-1: the relative viability was determined as 0.866 with AZD8055 + Lapatinib (first compound 0.01 µM); 0.761 in the experiment with AZD8055 + Lapatinib (first compound 0.03162 µM); 0.487 with AZD8055 + Lapatinib (first compound 0.1 µM); 0.376 in the experiment with AZD8055 + Lapatinib (first compound 0.3162 µM); 0.332 with AZD8055 + Lapatinib (first compound 1 µM); 0.941 with AZD8055 + Linsitinib (first compound 0.01 µM). Besides, the relative viability was 0.798 with AZD8055 + Linsitinib (first compound 0.03162 µM); 0.877 with AZD8055 + Linsitinib (first compound 0.1 µM); 0.491 with AZD8055 + Linsitinib (first compound 0.3162 µM); 0.321 in the experiment with AZD8055 + Linsitinib (first compound 1 µM); 0.354 with AZD8055 + OSI-027 (first compound 0.01 µM); 0.372 with AZD8055 + OSI-027 (first compound 0.03162 µM). The relative viability stood at 0.337 with AZD8055 + OSI-027 (first compound 0.1 µM); 0.289 in the experiment with AZD8055 + OSI-027 (first compound 0.3162 µM); 0.242 with AZD8055 + OSI-027 (first compound 1 µM); 0.579 with AZD8055 + Trametinib (first compound 0.01 µM); 0.447 with AZD8055 + Trametinib (first compound 0.03162 µM); 0.358 in the experiment with AZD8055 + Trametinib (first compound 0.1 µM). The relative viability is 0.284 with AZD8055 + Trametinib (first compound 0.3162 µM) and 0.3 with AZD8055 + Trametinib (first compound 1 µM).

In the case of SK-MES-1, the relative viability is 0.444 with AZD8055 + Lapatinib (first compound 0.01 µM); 0.387 in the experiment with AZD8055 + Lapatinib (first compound 0.03162 µM); 0.371 with AZD8055 + Lapatinib (first compound 0.1 µM); 0.274 with AZD8055 + Lapatinib (first compound 0.3162 µM); 0.318 with AZD8055 + Lapatinib (first compound 1 µM); 1.06 in the experiment with AZD8055 + Linsitinib (first compound 0.01 µM). Besides, the relative viability with AZD8055 + Linsitinib (first compound 0.03162 µM) was 0.932; with AZD8055 + Linsitinib (first compound 0.1 µM), 0.743; with AZD8055 + Linsitinib (first compound 0.3162 µM), 0.447; with AZD8055 + Linsitinib (first compound 1 µM), 0.313; in the experiment with AZD8055 + OSI-027 (first compound 0.01 µM), 0.653; in the experiment with AZD8055 + OSI-027 (first compound 0.03162 µM), 0.629. Also, the relative viability with AZD8055 + OSI-027 (first compound 0.1 µM) came out at 0.557; in the experiment with AZD8055 + OSI-027 (first compound 0.3162 µM), 0.338; in the experiment with AZD8055 + OSI-027 (first compound 1 µM), 0.22; in the experiment with AZD8055 + Trametinib (first compound 0.01 µM), 0.462; in the experiment with AZD8055 + Trametinib (first compound 0.03162 µM) it was 0.543; with AZD8055 + Trametinib (first compound 0.1 µM), 0.354. Further, the relative viability worked out at 0.313 with AZD8055 + Trametinib (first compound 0.3162 µM) and 0.303 with AZD8055 + Trametinib (first compound 1 µM).

SW 1573: the relative viability in the experiment with AZD8055 + Lapatinib (first compound 0.01 µM) amounted to 1.25; with AZD8055 + Lapatinib (first compound 0.03162 µM), 0.829; in the experiment with AZD8055 + Lapatinib (first compound 0.1 µM) it was 1.04; with AZD8055 + Lapatinib (first compound 0.3162 µM), 0.519; in the experiment with AZD8055 + Lapatinib (first compound 1 µM) it was 0.27; with AZD8055 + Linsitinib (first compound 0.01 µM), 0.725. Besides, the relative viability with AZD8055 + Linsitinib (first compound 0.03162 µM) came to 0.584; with AZD8055 + Linsitinib (first compound 0.1 µM) it was 0.484; with AZD8055 + Linsitinib (first compound 0.3162 µM) it was 0.267; with AZD8055 + Linsitinib (first compound 1 µM), 0.153; in the experiment with AZD8055 + OSI-027 (first compound 0.01 µM) it was 0.696; in the experiment with AZD8055 + OSI-027 (first compound 0.03162 µM), 0.528. The relative viability in the experiment with AZD8055 + OSI-027 (first compound 0.1 µM) worked out at 0.47; with AZD8055 + OSI-027 (first compound 0.3162 µM), 0.221; with AZD8055 + OSI-027 (first compound 1 µM), 0.18; with AZD8055 + Trametinib (first compound 0.01 µM) it was 0.559; with AZD8055 + Trametinib (first compound 0.03162 µM), 0.518; in the experiment with AZD8055 + Trametinib (first compound 0.1 µM) it was 0.379. Also, the relative viability with AZD8055 + Trametinib (first compound 0.3162 µM) came out at 0.193; with AZD8055 + Trametinib (first compound 1 µM), 0.15.

Take UMC-11: the relative viability in the experiment with AZD8055 + Lapatinib (first compound 0.01 µM) was determined as 0.832; with AZD8055 + Lapatinib (first compound 0.03162 µM), 0.573; with AZD8055 + Lapatinib (first compound 0.1 µM), 0.578; in the experiment with AZD8055 + Lapatinib (first compound 0.3162 µM), 0.276; with AZD8055 + Lapatinib (first compound 1 µM), 0.282; with AZD8055 + Linsitinib (first compound 0.01 µM), 0.995. The relative viability with AZD8055 + Linsitinib (first compound 0.03162 µM) worked out at 0.884; in the experiment with AZD8055 + Linsitinib (first compound 0.1 µM) it was 0.539; in the experiment with AZD8055 + Linsitinib (first compound 0.3162 µM) it was 0.251; in the experiment with AZD8055 + Linsitinib (first compound 1 µM), 0.266; with AZD8055 + OSI-027 (first compound 0.01 µM), 0.494; with AZD8055 + OSI-027 (first compound 0.03162 µM) it was 0.452. Besides, the relative viability came to 0.367 with AZD8055 + OSI-027 (first compound 0.1 µM); 0.302 in the experiment with AZD8055 + OSI-027 (first compound 0.3162 µM); 0.284 with AZD8055 + OSI-027 (first compound 1 µM); 0.77 with AZD8055 + Trametinib (first compound 0.01 µM); 0.489 with AZD8055 + Trametinib (first compound 0.03162 µM); 0.453 with AZD8055 + Trametinib (first compound 0.1 µM). Moreover, the relative viability with AZD8055 + Trametinib (first compound 0.3162 µM) stood at 0.319; with AZD8055 + Trametinib (first compound 1 µM) it was 0.253.

The values are drawn from the supplement of paper PMC10307832.
